Reference: patent US11685741B2, “Fluorescent probes” (University of Massachusetts, priority 2017, dated 2023)

What was measured:
zebrafish = test: Zebrafish confocal imaging of free Fe2+; assay type: in vivo
Experimental: Embryos were collected from natural spawning and raised up in embryo medium (M. Santra, et al. Chem. Commun., 2009, 10, 2115). Zebrafish mutant strain Casper was utilized because it lacks pigment, allowing better visualization (J. A. Lister, et al., Development, 1999, 126, 3757). Zebrafish embryos at 6 days post fertilization (dpf) were incubated with 10 μM NIRh-Fret in embryo media for 1 h at 28° C. In addition, iron (II) loaded zebrafish (100 μM Fe (NH4)2(SO4)2 for 8 hours incubation) were incubated with 10 μM NIRh-Fret in embryo media for 1 h at 28° C. The treated zebrafish were imaged by a LSM710 confocal microscope.
The ability of NIRh-Fret to detect free Fe^2+ in zebrafish was further investigated using confocal microscopy. […] For Fe^2+ replete conditions, live zebrafish were incubated with 100 μM of ferrous ammonium sulfate (Fe (NH4)2(SO4)2) at 28° C. for 8 h followed by washing with E3 medium to remove excess Fe^2+ and then 10 μM of NIRh-Fret was added to the culture media and was incubated at 28° C. for 30 min.
In addition, the red-colored region was observed as a well-localized red round spot, being the intestine region of the 6-days-old zebrafish.

[1] = test system: human fibroblast cells (ws1); test: Confocal imaging of Fe3+ with Rh-PK in ws1 cells; assay type: cell-based
Experimental: Human SH-SY5Y neuroblastoma cells and primary fibroblast ws1 cells were obtained from ATCC (American Type Culture Collection). Cells were maintained in a 1:1 mixture of Eagle's Minimal Essential medium (ATCC) and Ham's F12 medium (ATCC) supplemented with 10% fetal bovine serum (FBS, ATCC) without antibiotics and incubated at 37° C. in a humidified 5% CO2 atmosphere. The cells were routinely sub-cultured using 0.05% trypsin-EDTA solution (ATCC). The cells were seeded onto 2-chamber slides for 48 h at 5×10^4 cells/chamber and grown until each chamber was 20-30% confluent. A stock solution of Rh-PK ([…] in […]) was diluted to a concentration of […] in culture medium without FBS. […] The fluorescence responses of the sensor in living cells were measured under a Zeiss LSM 710 laser scanning confocal microscope. […] The REUSE function controlled by Zeiss software was applied to guarantee that all spectra were recorded under the same instrumental conditions.
The ability of Rh-PK to track Fe^3+ in live human fibroblast cells (ws1) was tested via a laser scanning confocal microscope (Zeiss LSM 710). […] Turn on fluorescence was observed, which is likely being triggered by endogenous labile Fe^3+. […]
FIG. 17A to FIG. 17C show the distribution of exchangeable Fe^3+ pools in live fibroblast cells (ws1). […] FIG. 17A is the Rh-PK-Fe3+ fluorescence intensity collected at 547-703 nm (red). […]

Row | SMILES | fluorescence of Fe^2+-treated zebrafish versus unsupplemented (zebrafish; 100 μM ferrous ammonium sulfate 8 h, then 10 μM NIRh-Fret 30 min) | fluorescence of zebrafish with sensor only (zebrafish; 6-days-old zebrafish, 10 μM NIRh-Fret) | fluorescence of Fe^3+-loaded cells versus before loading ([1]; 10 μM Rh-PK, cells loaded with 50 μM Fe^3+) | fluorescence response after Fe^3+ pre-depletion ([1]; SIH 100 μM overnight, then Rh-PK)
1 | CCN(CC)c1ccc2c(c1)OC1=C(CCC/C1=C\C=C1\N(C)c3ccccc3C1(C)C)C21c2ccccc2C(=O)N1/N=C\C=C\c1ccc(N(C)C)cc1 (stereo not shown) [NIRh-Fret, (E)-6′-(diethylamino)-2-(((1Z,2E)-3-(4-(dimethylamino)phenyl)allylidene)amino)-4′-(2-((E)-1,3,3-trimethylindolin-2-ylidene)ethylidene)-1′,2′,3′,4′-tetrahydrospiro[isoindoline-1,9′-xanthen]-3-one] | significant increase in fluorescent signals | weak fluorescence | – | –
2 | CCN(CC)c1ccc2c(c1)Oc1cc(N(CC)CC)ccc1C21c2ccccc2C(=O)N1CC/N=C(\C)c1cccc(C(C)=O)n1 [Rh-PK, (E)-2-(2-((1-(6-acetylpyridin-2-yl)ethylidene)amino)ethyl)-3′,6′-bis(diethylamino)spiro[isoindoline-1,9′-xanthen]-3-one] | – | – | brighter and more widely distributed fluorescence signals | weaker fluorescence response
